Numbers after ± are expanded uncertainties.

The nature of the series: activity coefficient (dimensionless); of the first substance listed, at infinite dilution; xn = mol fraction of the nth substance listed. Particulars: Liquid, Chromatography, x1 = 0.

In the case of `Cc1ccccc1C` [1,2-dimethylbenzene] + CCCCn1cc[n+](C)c1.N#C[S-], the activity coefficient stood at 4.58 ± 0.31 (298.15 K); 4.64 ± 0.32 (308.15 K); 4.71 ± 0.32 (318.15 K); 4.69 ± 0.32 (328.15 K); 4.71 ± 0.32 (338.15 K); 4.75 ± 0.32 (348.15 K). Besides, the activity coefficient reads like this: (358.15 K) 4.78 ± 0.33; (368.15 K) 4.81 ± 0.33.
For `Cc1cccc(C)c1` [1,3-dimethylbenzene] + CCCCn1cc[n+](C)c1.N#C[S-], the activity coefficient is 5.92 ± 0.4 (298.15 K); 5.91 ± 0.4 (308.15 K); 5.98 ± 0.41 (318.15 K); 5.96 ± 0.41 (328.15 K); 5.96 ± 0.41 (338.15 K); 5.97 ± 0.41 (348.15 K). Besides, the activity coefficient runs as follows: (358.15 K) 5.99 ± 0.41; (368.15 K) 5.96 ± 0.41.
`Cc1ccc(C)cc1` [1,4-dimethylbenzene] + CCCCn1cc[n+](C)c1.N#C[S-]: the activity coefficient (298.15 K) came out at 5.51 ± 0.38; the activity coefficient (308.15 K) came out at 5.54 ± 0.38; the activity coefficient (318.15 K) was 5.59 ± 0.38; the activity coefficient (328.15 K) was determined as 5.6 ± 0.38; the activity coefficient (338.15 K) is 5.63 ± 0.38; the activity coefficient (348.15 K) amounted to 5.68 ± 0.39. Besides, the activity coefficient stood at 5.72 ± 0.39 (358.15 K) and 5.75 ± 0.39 (368.15 K).
With `C=CCCCCC` [1-heptene] + CCCCn1cc[n+](C)c1.N#C[S-], the activity coefficient reads like this: (298.15 K) 81.1 ± 5.6; (308.15 K) 73.7 ± 5.1; (318.15 K) 68.5 ± 4.7; (328.15 K) 62.3 ± 4.3; (338.15 K) 58 ± 4; (348.15 K) 54.8 ± 3.8. The activity coefficient (358.15 K) amounted to 52.4 ± 3.6.
Take `C#CCCCCC` [1-heptyne] + CCCCn1cc[n+](C)c1.N#C[S-]: the activity coefficient runs as follows: (298.15 K) 9.88 ± 0.67; (308.15 K) 9.92 ± 0.68; (318.15 K) 10.1 ± 0.69; (328.15 K) 10.2 ± 0.7; (338.15 K) 10.2 ± 0.7; (348.15 K) 10.3 ± 0.7. Further, for the setting “358.15 K”, the activity coefficient is 10.4 ± 0.71.
With `C#CCCCC` [1-hexyne] + CCCCn1cc[n+](C)c1.N#C[S-], the activity coefficient amounted to 6.42 ± 0.44 (298.15 K); 6.45 ± 0.44 (308.15 K); 6.59 ± 0.45 (318.15 K); 6.65 ± 0.45 (328.15 K); 6.76 ± 0.46 (338.15 K); 6.87 ± 0.47 (348.15 K). Moreover, the activity coefficient (358.15 K) is 6.95 ± 0.47.
`C#CCCCCCC` [1-octyne] + CCCCn1cc[n+](C)c1.N#C[S-]: the activity coefficient (298.15 K) was 15.2 ± 1; the activity coefficient (308.15 K) was 15.1 ± 1; the activity coefficient (318.15 K) was found to be 15.4 ± 1.1; the activity coefficient (328.15 K) stood at 15.3 ± 1; the activity coefficient (338.15 K) worked out at 15.3 ± 1; the activity coefficient (348.15 K) is 15.3 ± 1. The activity coefficient (358.15 K) is 15.3 ± 1.
Consider `C=CCCC` [1-pentene] + CCCCn1cc[n+](C)c1.N#C[S-], for which the activity coefficient by setting is: (298.15 K) 52.3 ± 3.6; (308.15 K) 46.4 ± 3.2; (318.15 K) 41.5 ± 2.8; (328.15 K) 35.4 ± 2.4; (338.15 K) 32.6 ± 2.2; (348.15 K) 30.6 ± 2.1. For the setting “358.15 K”, the activity coefficient is 27.6 ± 1.9.
With `C#CCCC` [1-pentyne] + CCCCn1cc[n+](C)c1.N#C[S-], the activity coefficient was found to be 4.6 ± 0.31 (298.15 K); 4.68 ± 0.32 (308.15 K); 4.71 ± 0.32 (318.15 K); 4.73 ± 0.32 (328.15 K); 4.79 ± 0.33 (338.15 K); 4.85 ± 0.33 (348.15 K). In addition, the activity coefficient (358.15 K) is 4.97 ± 0.34.
`COC(C)(C)C` [2-methoxy-2-methylpropane] + CCCCn1cc[n+](C)c1.N#C[S-]: the activity coefficient runs as follows: (298.15 K) 12.8 ± 0.59; (308.15 K) 12.4 ± 0.57; (318.15 K) 11.9 ± 0.55; (328.15 K) 11.4 ± 0.52; (338.15 K) 11.1 ± 0.51; (348.15 K) 10.7 ± 0.49. Besides, the activity coefficient (358.15 K) was 10.6 ± 0.49.
As for `c1ccccc1` [benzene] + CCCCn1cc[n+](C)c1.N#C[S-], the activity coefficient (298.15 K) worked out at 2.13 ± 0.14; the activity coefficient (308.15 K) amounted to 2.15 ± 0.15; the activity coefficient (318.15 K) came to 2.17 ± 0.15; the activity coefficient (328.15 K) amounted to 2.18 ± 0.15; the activity coefficient (338.15 K) is 2.2 ± 0.15; the activity coefficient (348.15 K) amounted to 2.22 ± 0.15. For the same compound, the activity coefficient runs as follows: (358.15 K) 2.25 ± 0.15; (368.15 K) 2.27 ± 0.15.
On to `CCCCO` [butan-1-ol] + CCCCn1cc[n+](C)c1.N#C[S-], for which the activity coefficient was determined as 1.32 ± 0.09 (308.15 K); 1.25 ± 0.08 (318.15 K); 1.21 ± 0.08 (328.15 K); 1.16 ± 0.07 (338.15 K); 1.13 ± 0.07 (348.15 K); 1.1 ± 0.07 (358.15 K). The activity coefficient (368.15 K) is 1.08 ± 0.07.
In the case of `C1CCCCCC1` [cycloheptane] + CCCCn1cc[n+](C)c1.N#C[S-], the activity coefficient (298.15 K) was 56.6 ± 3.9; the activity coefficient (308.15 K) worked out at 51 ± 3.5; the activity coefficient (318.15 K) is 46.5 ± 3.2; the activity coefficient (328.15 K) stood at 42 ± 2.9; the activity coefficient (338.15 K) was 38.9 ± 2.7; the activity coefficient (348.15 K) turned out to be 36.1 ± 2.5. Moreover, where the note is “358.15 K”, the activity coefficient was found to be 33.7 ± 2.3.
As for `C1CCCCC1` [cyclohexane] + CCCCn1cc[n+](C)c1.N#C[S-], the activity coefficient reads like this: (298.15 K) 62.3 ± 4.3; (308.15 K) 53.5 ± 3.7; (318.15 K) 47.1 ± 3.2; (328.15 K) 41.1 ± 2.8; (338.15 K) 36.8 ± 2.5; (348.15 K) 33.5 ± 2.3. Besides, for the setting “358.15 K”, the activity coefficient amounted to 31.1 ± 2.1.
With `C1CCCCCCC1` [cyclooctane] + CCCCn1cc[n+](C)c1.N#C[S-], the activity coefficient by setting is: (298.15 K) 70 ± 4.8; (308.15 K) 63.1 ± 4.3; (318.15 K) 57.8 ± 4; (328.15 K) 53.2 ± 3.6; (338.15 K) 48.6 ± 3.3; (348.15 K) 45 ± 3.1. In addition, the activity coefficient (358.15 K) turned out to be 41.9 ± 2.9.
Take `C1CCCC1` [cyclopentane] + CCCCn1cc[n+](C)c1.N#C[S-]: the activity coefficient (298.15 K) stood at 46.9 ± 3.2; the activity coefficient (308.15 K) was determined as 39.7 ± 2.7; the activity coefficient (318.15 K) is 34.9 ± 2.4; the activity coefficient (328.15 K) is 30 ± 2.1; the activity coefficient (338.15 K) was found to be 26.8 ± 1.8; the activity coefficient (348.15 K) turned out to be 24.2 ± 1.7. Besides, the activity coefficient (358.15 K) is 23.1 ± 1.6.
With `CCCCCCCCCC` [decane] + CCCCn1cc[n+](C)c1.N#C[S-], the activity coefficient was determined as 628 ± 43 (298.15 K); 581 ± 40 (308.15 K); 533 ± 26 (318.15 K); 470 ± 23 (328.15 K); 426 ± 20 (338.15 K); 386 ± 19 (348.15 K). Also, where the note is “358.15 K”, the activity coefficient is 351 ± 17.
In the case of `CCO` [ethanol] + CCCCn1cc[n+](C)c1.N#C[S-], the activity coefficient (298.15 K) came out at 0.743 ± 0.049; the activity coefficient (308.15 K) was 0.709 ± 0.047; the activity coefficient (318.15 K) was 0.69 ± 0.046; the activity coefficient (328.15 K) came to 0.671 ± 0.045; the activity coefficient (338.15 K) was determined as 0.655 ± 0.045; the activity coefficient (348.15 K) was found to be 0.643 ± 0.044. Moreover, the activity coefficient reads like this: (358.15 K) 0.631 ± 0.044; (368.15 K) 0.623 ± 0.043.
Take `CCc1ccccc1` [ethylbenzene] + CCCCn1cc[n+](C)c1.N#C[S-]: the activity coefficient amounted to 5.86 ± 0.4 (298.15 K); 5.9 ± 0.4 (308.15 K); 5.93 ± 0.4 (318.15 K); 5.86 ± 0.4 (328.15 K); 5.93 ± 0.4 (338.15 K); 5.83 ± 0.4 (348.15 K). Moreover, the activity coefficient reads like this: (358.15 K) 5.82 ± 0.4; (368.15 K) 5.81 ± 0.4.
As to `CCCCCCC` [heptane] + CCCCn1cc[n+](C)c1.N#C[S-], the activity coefficient turned out to be 281 ± 19 (298.15 K); 245 ± 17 (308.15 K); 213 ± 15 (318.15 K); 183 ± 13 (328.15 K); 162 ± 11 (338.15 K); 146 ± 10 (348.15 K). Further, under “358.15 K”, the activity coefficient worked out at 132 ± 9.
For the compound `C=CCCCC` [hex-1-ene] + CCCCn1cc[n+](C)c1.N#C[S-], the activity coefficient reads like this: (298.15 K) 61.6 ± 4.2; (308.15 K) 54.8 ± 3.8; (318.15 K) 50.2 ± 3.4; (328.15 K) 44.9 ± 3.1; (338.15 K) 41.4 ± 2.8; (348.15 K) 38.3 ± 2.6. In addition, the activity coefficient (358.15 K) worked out at 36.4 ± 2.5.
As to `CCCCCC` [hexane] + CCCCn1cc[n+](C)c1.N#C[S-], the activity coefficient turned out to be 226 ± 16 (298.15 K); 189 ± 13 (308.15 K); 167 ± 11 (318.15 K); 143 ± 10 (328.15 K); 126 ± 9 (338.15 K); 108 ± 7 (348.15 K). Besides, the activity coefficient (358.15 K) amounted to 100 ± 7.
As for `CO` [methanol] + CCCCn1cc[n+](C)c1.N#C[S-], the activity coefficient runs as follows: (298.15 K) 0.416 ± 0.035; (308.15 K) 0.396 ± 0.034; (318.15 K) 0.396 ± 0.034; (328.15 K) 0.391 ± 0.034; (338.15 K) 0.387 ± 0.034; (348.15 K) 0.386 ± 0.033. In addition, the activity coefficient runs as follows: (358.15 K) 0.383 ± 0.033; (368.15 K) 0.382 ± 0.033.
Take `CCCCCCCCC` [nonane] + CCCCn1cc[n+](C)c1.N#C[S-]: the activity coefficient runs as follows: (298.15 K) 459 ± 32; (308.15 K) 414 ± 28; (318.15 K) 376 ± 26; (328.15 K) 332 ± 23; (338.15 K) 298 ± 20; (348.15 K) 272 ± 19. In addition, the activity coefficient (358.15 K) was 252 ± 17.
As to `C=CCCCCCC` [oct-1-ene] + CCCCn1cc[n+](C)c1.N#C[S-], the activity coefficient worked out at 111 ± 8 (298.15 K); 102 ± 7 (308.15 K); 96.3 ± 6.6 (318.15 K); 88.1 ± 6 (328.15 K); 82.5 ± 5.7 (338.15 K); 77.6 ± 5.3 (348.15 K). Also, for the setting “358.15 K”, the activity coefficient was found to be 73.8 ± 5.1.
